Measured values as given in publication PMC9827630, “Intra-colony venom diversity contributes to maintaining eusociality in a cooperatively breeding ant” (BMC Biology, 2023).
Where a SMILES comes first, the peptide text is derived from it. Bridges are numbered along the chain shown (N, C = ends). Where no end group is shown, it is not given here.

What was measured:
HEK293T cells = assay: Cell viability assay, resazurin; assay type: cell-based; conditions: 100 μM peptide
Experimental: (§1) In addition to the cytotoxicity assays performed by CO-ADD, we screened the synthetic peptides for toxicity in cell viability assays using HAP1, MM96L, and HEK293T cells. peptides were reconstituted in 100% DMSO then diluted in cell media (HAP1: IMDM (Sigma Aldrich) with 10% FBS and 1% Penicillin/Streptomycin (P/S); MM96L: RPMI (Gibco) with 10% FBS, 1% P/S and 1% GlutaMAX (Gibco); HEK293T: DMEM high glucose (Gibco), with 10% FBS and 1% P/S. Trypsinized cells ([…]) were seeded in each well of a 96-well plate. 0.01 to 1000 μM peptide was added to each well after 24 h, and the cells incubated for an additional 74 h. After incubation, the medium was aspirated from each well and 150 μL of fresh medium containing a 0.002% solution of resazurin (Sigma-Aldrich) was added to the wells and incubated for 4 h at 37 °C. The absorbance was measured at 570 nm using a microplate spectrophotometer (FLUOstar Omega, BMG Labtech, Germany). Percentage cell viability at concentrations of 10 and 100 μM peptide were compared with negative control by one-way ANOVA Dunnett’s multiple comparisons test (GraphPad Prism8).

[1] = test system: MM96L cells (melanoma cell line); assay: Cell viability assay, resazurin; assay type: cell-based; conditions: 100 μM peptide
Experimental: as §1

[2] = test system: Klebsiella pneumoniae ATCC 700603; assay: Antimicrobial growth inhibition (CO-ADD); assay type: cell-based; conditions: absorbance at 600 nm; for Max response ± SEM: percentage growth inhibition, mean ± SEM; for MIC: sigmoidal dose-response fit of growth inhibition
Experimental: (§2) Antimicrobial and cytotoxicity assays were performed by CO-ADD (The Community for Antimicrobial Drug Discovery, Institute for Molecular Bioscience, The University of Queensland). […] Percentage growth inhibition was calculated using negative controls (media only) and positive controls (no peptide). For the hemolysis assays, human whole blood was washed three times with 3 volumes of 0.9% NaCl and then resuspended in 0.9% NaCl to a concentration of 0.5 × 10^8 cells/mL. Cells were incubated for 1 h at 37°C with or without the peptide. After incubation, plates were centrifuged at 1000 g for 10 min to pellet cells and debris and hemolysis determined by measuring the supernatant absorbance at 405 nm.

[3] = test system: Pseudomonas aeruginosa ATCC 27853; assay: Antimicrobial growth inhibition (CO-ADD); assay type: cell-based; conditions: absorbance at 600 nm; for Max response ± SEM: percentage growth inhibition, mean ± SEM; for MIC: sigmoidal dose-response fit of growth inhibition
Experimental: as §2

[4] = test system: Acinetobacter baumannii ATCC 19606; assay: Antimicrobial growth inhibition (CO-ADD); assay type: cell-based; conditions: absorbance at 600 nm; for Max response ± SEM: percentage growth inhibition, mean ± SEM; for MIC: sigmoidal dose-response fit of growth inhibition
Experimental: as §2

[5] = test system: Escherichia coli ATCC 25922; assay: Antimicrobial growth inhibition (CO-ADD); assay type: cell-based; conditions: absorbance at 600 nm; for Max response ± SEM: percentage growth inhibition, mean ± SEM; for MIC: sigmoidal dose-response fit of growth inhibition
Experimental: as §2

[6] = test system: Staphylococcus aureus ATCC 43300; assay: Antimicrobial growth inhibition (CO-ADD); assay type: cell-based; conditions: for Max response ± SEM: percentage growth inhibition, mean ± SEM; for Max response ± SEM / MIC: absorbance at 600 nm; for MIC: sigmoidal dose-response fit of growth inhibition
Experimental: as §2

panel of microbes = assay: Antimicrobial screening, summary over the panel of microbes; assay type: cell-based; conditions: all strains of the panel (for Rm54a and Rm55a: strains other than S. aureus)
Experimental: as §2

[7] = test system: Cryptococcus neoformans var. grubii H99; ATCC 208821; assay: Antifungal growth inhibition (CO-ADD); assay type: cell-based; conditions: for Max response ± SEM: percentage growth inhibition, difference in absorbance 600 and 570 nm after resazurin, 35°C 2 h, mean ± SEM; for MIC: sigmoidal dose-response fit of growth inhibition, resazurin read-out
Experimental: as §2

[8] = test system: Candida albicans ATCC 90028; assay: Antifungal growth inhibition (CO-ADD); assay type: cell-based; conditions: absorbance at 530 nm; for Max response ± SEM: percentage growth inhibition, mean ± SEM; for MIC: sigmoidal dose-response fit of growth inhibition
Experimental: as §2

HAP1 cells = assay: Cell viability assay, resazurin; assay type: cell-based
Experimental: as §1

Human red blood cells = assay: Hemolysis assay (CO-ADD); assay type: cell-based; conditions: hemolysis, washed human blood 0.5 × 10^8 cells/mL in 0.9% NaCl, 1 h at 37°C, supernatant absorbance at 405 nm; mean ± SEM
Experimental: as §2

[9] = test system: Female fruit flies (D. melanogaster strain Canton-S); assay: Fruit fly injection assay (lethality, paralysis, climbing); assay type: in vivo, Drosophila melanogaster
Experimental: Female fruit flies (D. melanogaster strain Canton-S) were injected four to six days post-emergence. Female flies were used because their larger size makes injection easier. Groups of eight female flies were assayed in triplicate for each dose tested. Injection needles were formed from glass capillary tubes (#3-000-203-G/X, Drummond, Birmingham, AL, USA) using a micropipette puller (Sutter Instrument Co. Model P-97), with the fine tip manually trimmed afterwards using scissors. Needles then were filled with mineral oil, connected to a Nanoliter 2000 microinjector ([…], Bensenville, IL USA) equipped with a foot pedal, and ~1 μL of peptide solution or water aspirated. Each group of flies were immobilized by cooling for approximately 2 min on ice, and then decanted on the top of the ‘injection stage’, a petri dish filled with ice. Under a dissecting microscope, each fly was carefully impaled on the lateral thorax behind the wing, and 50.6 nL of venom peptide or water was injected. After injection, each group of flies were returned to their 5 mL plastic tube at room temperature and their behavior observed.

F11 = assay: Ion permeability F11; assay type: cell-based, mouse; conditions: ions listed as permeant; - = none
[10] = test system: Human embryonic kidney cells ATCC CRL-1573; assay: Cytotoxicity assay (CO-ADD), resazurin; assay type: cell-based; conditions: percentage growth inhibition, resazurin fluorescence, 37°C 5% CO2; mean ± SEM
Experimental: as §2

HEK = assay: Ion permeability HEK; assay type: cell-based, Human; conditions: ions listed as permeant; - = none
[11] = test system: House crickets (Acheta domesticus); assay: Insect incapacitation assay, house crickets; assay type: in vivo
Experimental: House crickets (A. domesticus; Pisces Live Food, QLD, Australia) (average mass 50 mg), were injected intra-abdominally with 40 nmol/g of each synthetic peptide (in 2 μL water). […] Lethality was assessed at 24 h. […] To calculate dose-response curves, a four-parameter Hill equation with variable Hill slope was fitted to the data (GraphPad Prism 8.02). All data are expressed as the mean ± standard error of the mean (SEM) and are representative of at least three independent data points. The percentage of crickets incapacitated by a dose of 40 nmol/g, was compared with negative control (water injection) by one-way ANOVA Dunnett’s multiple comparisons test (GraphPad Prism8).

[12] = test system: F11 (mouse neuroblastoma × rat dorsal root ganglion (DRG) neuron hybrid) cells; assay: Calcium imaging of F11 cells (FLIPR); assay type: cell-based; conditions: increase in [Ca2+]i, max-min fluorescence over 300 s; read-out: EC50 (F11 cells, Table S2)
Experimental: F11 (mouse neuroblastoma × rat dorsal root ganglion (DRG) neuron hybrid) cells were cultured as previously described. Cells were maintained on Ham’s F12 media supplemented with 10 % fetal bovine serum, 100 μM hypoxanthine, 0.4 μM aminopterin, and 16 μM thymidine (Hybri-MaxTM, Sigma Aldrich). 384-well imaging plates (Corning, Lowell, MA, USA) were seeded 48 h prior to imaging resulting in 90 – 95% confluence at imaging. Cells were incubated for 30 min with Calcium 4 assay component A, as per the manufacturer’s instructions (Molecular Devices, Sunnyvale, CA) in physiological salt solution (PSS; composition in mM: 140 NaCl, 11.5 D-glucose, 5.9 KCl, 1.4 MgCl2, 1.2 NaH2PO4, 5 NaHCO3, 1.8 CaCl2, 10 HEPES) at 37°C. […] Signals were read every second for 10 s before, and 300 s after, the addition of peptides in PSS supplemented with 0.1% bovine serum albumin. All data represent mean ± SEM of a representative assay in triplicate. Fluorescence changes on peptide addition were compared to addition of negative control solution (0.1% BSA in PSS). The resulting maximum-minimum fluorescence in the 300 s period after peptide addition was recorded as the response.

Molecule	Cytotoxicity against HEK293T cells (HEK293T cells)	Cytotoxicity against MM96L cells [1]	Max response ± SEM [2]	MIC [2]	Max response ± SEM [3]	MIC [3]	Max response ± SEM [4]	MIC [4]	Max response ± SEM [5]	MIC [5]	Max response ± SEM [6]	MIC [6]	Growth inhibition over the microbial strains examined (panel of microbes)	Max response ± SEM [7]	MIC [7]	Max response ± SEM [8]	MIC [8]	ion permeability F11 (F11)	ion permeability HEK (HEK)	also measured
CC[C@H](C)[C@H](NC(=O)[C@H](CCC(=O)O)NC(=O)[C@H](CCC(N)=O)NC(=O)[C@H](CCSC)NC(=O)[C@H](CC(N)=O)NC(=O)[C@@H](N)CO)C(=O)N[C@@H](CCSC)C(=O)N[C@@H](CCCCN)C(=O)N[C@@H](CCCCN)C(=O)N[C@@H](CC(C)C)C(=O)N[C@H]1CSSC[C@@H](C(=O)N[C@@H](CCCCN)C(=O)N[C@@H](CCSC)C(=O)N[C@@H](CC(C)C)C(=O)NCC(=O)N[C@@H](CC(C)C)C(=O)O)NC(=O)[C@H](CCSC)NC(=O)[C@H](Cc2c[nH]c3ccccc23)NC(=O)[C@H](C)NC(=O)[C@@H]2CCCN2C(=O)[C@H](CCSC)NC(=O)[C@H](CCCCN)NC(=O)[C@H](CCCCN)NC(=O)[C@H](CC(=O)O)NC(=O)[C@H]([C@@H](C)O)NC1=O [Rm9a] (H-SNMQEIMKKLCTDKKMPAWMCKMLGL-OH; disulfide 11-21; N-terminus assumed)	cytotoxic to both HEK293T and MM96L cells	cytotoxic to both HEK293T and MM96L cells	5 ± 2	>11 µM	5 ± 3	>11 µM	9 ± 0	>11 µM	3 ± 2	>11 µM	3 ± 5	>11 µM	no inhibitory activity	-86 ± 5	>11 µM	1 ± 2	>11 µM			
LWPFLISLIPTVIDLARNL-NH2 [Rm54a]	cytotoxic against HEK293T cells	not the melanoma cell line MM96L	10 ± 2		16 ± 1		22 ± 3		10 ± 1		102 ± 1		not affecting any of the other strains examined	-15 ± 2		10 ± 3		Ca2+,Na+,Th+	Ca2+,Na+,Th+	Cytotoxicity to HAP cells (HAP1 cells): cytotoxic to HAP cells; HAP cell viability (HAP1 cells; 10 μM peptide, n = 3 per group): significantly reduced HAP cell viability; Max response ± SEM (Human red blood cells): 95 ± 6; Motor behavior (climbing assay) ([9]; 5 nmol/g injected, climbing assay 5 min after injection, significant versus control): disrupted motor behavior; Inhibition of S. aureus (in words) [6]: complete inhibition; Max response ± SEM [10]: 95 ± 0
VAPIVAMAGLGLFAAAVAGLDWLSKKV-NH2 [Rm1a]			0 ± 2	>12 µM	-2 ± 9	>12 µM	3 ± 2	>12 µM	9 ± 3	>12 µM	-19 ± 7	>12 µM		36 ± 7	>12 µM	67 ± 4	>12 µM	Ca2+,Na+,Th+	Ca2+,Na+,Th+	Flies dead ([9]; 50 pmol/g injected, mean ± SD): 25.0 ± 12.5%; Flies paralyzed ([9]; 50 pmol/g injected, mean ± SD): 95.8 ± 7.2%; Instant death of flies ([9]; 5 nmol/g injected, groups of eight female flies in triplicate, mean ± SD): 100 ± 0%; LD50 5 min (dose required to kill 50% of flies 5 min after injection) ([9]; D. melanogaster, 5 min after injection): 0.17 nmol/g; PD50 5 min (dose required to paralyze 50% of flies within 5 min) ([9]; D. melanogaster, within 5 min): 23 pmol/g; Lethality in crickets at lowest dose tested ([11]; 40 pmol/g, intra-abdominal injection, lethality assessed at 24 h): ultimately lethal; Incapacitation of crickets ([11]; 40 nmol/g, intra-abdominal injection, observed 30 min): able to incapacitate crickets; Onset of incapacitation in crickets ([11]; 40 and 4 nmol/g, delayed at lower doses): immediate; PD50 30 min (dose required to paralyze 50% of crickets 30 min after injection) ([11]; intra-abdominal injection, n = 3 per group): 0.3 nmol/g; EC50 [12]: 5.7 µM
